Source: patent US20240247035A1, “STAPLED ANTIMICROBIAL PEPTIDES (STAMPS) AND USES THEREOF” (Lytica Therapeutics, Inc., priority 2021, published 2024)
≈ marks a conversion by molar mass, not a printed value. Bridge positions count the residues as written; N and C are the ends. Square brackets hold non-standard residues; d marks the D form. Peptide text beside a SMILES is read from it. S5 = C=CCCC[C@](C)(N)C(=O)O

What was measured:
[1] = 90 minute cytotoxicity assay (LDH release), renal toxicity; type: cell-based; details: human
Description: (§1) Cell culture: RPTEC were maintained in MEM media supplemented with growth factors. HEPG2 cell line was maintained in Eagle's Minimum Essential Medium (EMEM) supplemented with fetal bovine serum to a final concentration of 10%.
90 minute cytotoxicity assay: Cells were plated in a 96-well format, and after overnight incubation, media was replaced with fresh media. Serial dilutions of StAMPs from a 5 mg/mL water stock, or vehicle, were added to the cells in a final volume of 100 μl. After incubating at 37° C. for 90 min, 50 μl of cell culture media was transferred to a clear 96-well plate, incubated with 50 μl of lactate dehydrogenase (LDH) assay reagent for 10 min, and absorbance measured at 490 nm on a microplate reader.
(§2) Renal toxicity was measured after 90 minutes of incubation, while liver toxicity was measured after 48 hours of incubation with StAMPs. N/A=not tested.

[2] = 48 hours cytotoxicity assay (CellTiter-Glo), liver toxicity; type: cell-based; details: human
Description: as §1
48 hours cytotoxicity assay: Cells were plated in a 96-well format, and after 4 hour incubation to allow attachment, serial dilutions of StAMPs from a 5 mg/mL water stock, or vehicle, were then added to the cells in a final volume of 100 μl. After incubating at 37° C. for 48 hours, 100 μl of CellTiter-Glo® reagent was added to the cells, and the plates were incubated 10 minutes at room temperature. Luminescence was then measured on a microplate reader.
as §2

| Compound | IC50 at 90 min [1] | IC50 at 48 hours [2] |
| --- | --- | --- |
| CC[C@H](C)[C@H](NC(=O)[C@H](CCCCN)NC(=O)[C@H](CCCCN)NC(=O)CNC(=O)[C@H](CCCCN)NC(=O)[C@]1(C)CCCC=CCCC[C@](C)(NC(=O)CN)C(=O)N[C@@H](CCCCN)C(=O)N[C@@H](CO)C(=O)N[C@@H](CCCCN)C(=O)N1)C(=O)N[C@@H](CCCCN)C(=O)N[C@@H](CC(N)=O)C(=O)N[C@@H](CC(C)C)C(=O)N[C@@]1(C)CCCC=CCCC[C@@](C)(C(=O)N[C@@H](CCCCN)C(=O)N[C@@H](CC(N)=O)C(=O)NCC(=O)NCC(=O)NCC(=O)N[C@@H](CCC(=O)O)C(N)=O)NC(=O)[C@H](Cc2ccccc2)NC(=O)[C@H](CO)NC(=O)[C@H]([C@@H](C)CC)NC1=O [compound 24] (H-G[S5]KSK[S5]KGKKIKNL[S5]ISF[S5]KNGGGE-NH2; staple 2-6, 15-19) | 112 µg/mL (≈ 41.2 µM) | 16 µg/mL (≈ 5.89 µM) |
| CC[C@H](C)[C@H](NC(=O)[C@H](CCCCN)NC(=O)[C@H](CCCCN)NC(=O)CNC(=O)[C@H](CCCCN)NC(=O)[C@]1(C)CCCC=CCCC[C@](C)(NC(=O)[C@@H](N)CCCCN)C(=O)N[C@@H](Cc2ccccc2)C(=O)N[C@@H](CO)C(=O)N[C@@H](CCCCN)C(=O)N1)C(=O)N[C@@H](CCCCN)C(=O)N[C@@H](CC(N)=O)C(=O)N[C@@H](CC(C)C)C(=O)N[C@@]1(C)CCCC=CCCC[C@@](C)(C(=O)N[C@@H](CCCCN)C(=O)NCC(N)=O)NC(=O)CNC(=O)[C@H](CO)NC(=O)[C@H]([C@@H](C)CC)NC1=O [compound 25] (H-K[S5]FSK[S5]KGKKIKNL[S5]ISG[S5]KG-NH2; staple 2-6, 15-19) | 109 µg/mL (≈ 46.2 µM) | 49 µg/mL (≈ 20.8 µM) |
| CC[C@H](C)[C@H](NC(=O)[C@H](CCCCN)NC(=O)[C@H](CCCCN)NC(=O)CNC(=O)[C@H](CCCCN)NC(=O)[C@]1(C)CCCC=CCCC[C@](C)(NC(=O)CN)C(=O)N[C@@H](Cc2ccccc2)C(=O)N[C@@H](CCCCN)C(=O)N[C@@H](CCCCN)C(=O)N1)C(=O)N[C@@H](CCCCN)C(=O)N[C@@H](CC(N)=O)C(=O)N[C@@H](CC(C)C)C(=O)N[C@@]1(C)CCCC=CCCC[C@@](C)(C(=O)N[C@@H](CCCCN)C(=O)NCC(N)=O)NC(=O)CNC(=O)[C@H](CO)NC(=O)[C@H]([C@@H](C)CC)NC1=O [compound 26] (H-G[S5]FKK[S5]KGKKIKNL[S5]ISG[S5]KG-NH2; staple 2-6, 15-19) | 32 µg/mL (≈ 13.7 µM) | 27 µg/mL (≈ 11.6 µM) |
| CC[C@H](C)[C@H](NC(=O)[C@H](CCCCN)NC(=O)[C@H](CCCCN)NC(=O)[C@H](CCCCN)NC(=O)[C@H](CCCCN)NC(=O)[C@]1(C)CCCC=CCCC[C@](C)(NC(=O)CN)C(=O)N[C@@H](Cc2ccccc2)C(=O)N[C@@H](CO)C(=O)N[C@@H](CCCCN)C(=O)N1)C(=O)N[C@@H](CCCCN)C(=O)N[C@@H](CC(N)=O)C(=O)N[C@@H](CC(C)C)C(=O)N[C@@]1(C)CCCC=CCCC[C@@](C)(C(=O)N[C@@H](CCCCN)C(=O)NCC(N)=O)NC(=O)CNC(=O)[C@H](CO)NC(=O)[C@H]([C@@H](C)CC)NC1=O [compound 27] (H-G[S5]FSK[S5]KKKKIKNL[S5]ISG[S5]KG-NH2; staple 2-6, 15-19) | 42 µg/mL (≈ 17.8 µM) | 35 µg/mL (≈ 14.8 µM) |
| CC[C@H](C)[C@H](NC(=O)[C@H](CCCCN)NC(=O)[C@H](CCCCN)NC(=O)CNC(=O)[C@H](CCCCN)NC(=O)[C@]1(C)CCCC=CCCC[C@](C)(NC(=O)CN)C(=O)N[C@@H](Cc2ccccc2)C(=O)N[C@@H](CO)C(=O)N[C@@H](CCCCN)C(=O)N1)C(=O)N[C@@H](CCCCN)C(=O)N[C@@H](CCCCN)C(=O)N[C@@H](CC(C)C)C(=O)N[C@@]1(C)CCCC=CCCC[C@@](C)(C(=O)N[C@@H](CCCCN)C(=O)NCC(N)=O)NC(=O)CNC(=O)[C@H](CO)NC(=O)[C@H]([C@@H](C)CC)NC1=O [compound 29] (H-G[S5]FSK[S5]KGKKIKKL[S5]ISG[S5]KG-NH2; staple 2-6, 15-19) | 27 µg/mL (≈ 11.7 µM) | 22 µg/mL (≈ 9.55 µM) |
| CC[C@H](C)[C@H](NC(=O)[C@H](CCCCN)NC(=O)[C@H](CCCCN)NC(=O)CNC(=O)[C@H](CCCCN)NC(=O)[C@]1(C)CCCC=CCCC[C@](C)(NC(=O)CN)C(=O)N[C@@H](Cc2ccccc2)C(=O)N[C@@H](CO)C(=O)N[C@@H](CCCCN)C(=O)N1)C(=O)N[C@@H](CCCCN)C(=O)N[C@@H](CC(N)=O)C(=O)N[C@@H](CCCCN)C(=O)N[C@@]1(C)CCCC=CCCC[C@@](C)(C(=O)N[C@@H](CCCCN)C(=O)NCC(N)=O)NC(=O)CNC(=O)[C@H](CO)NC(=O)[C@H]([C@@H](C)CC)NC1=O [compound 30] (H-G[S5]FSK[S5]KGKKIKNK[S5]ISG[S5]KG-NH2; staple 2-6, 15-19) | > 200 µg/mL | > 200 µg/mL |
| CC[C@H](C)[C@H](NC(=O)[C@H](CCCCN)NC(=O)[C@H](CCCCN)NC(=O)CNC(=O)[C@H](CCCCN)NC(=O)[C@]1(C)CCCC=CCCC[C@](C)(NC(=O)CN)C(=O)N[C@@H](Cc2ccccc2)C(=O)N[C@@H](CO)C(=O)N[C@@H](CCCCN)C(=O)N1)C(=O)N[C@@H](CCCCN)C(=O)N[C@@H](CC(N)=O)C(=O)N[C@@H](CC(C)C)C(=O)N[C@@]1(C)CCCC=CCCC[C@@](C)(C(=O)N[C@@H](CCCCN)C(=O)NCC(N)=O)NC(=O)CNC(=O)[C@H](CO)NC(=O)[C@H](CCCCN)NC1=O [compound 31] (H-G[S5]FSK[S5]KGKKIKNL[S5]KSG[S5]KG-NH2; staple 2-6, 15-19) | 116 µg/mL (≈ 50.3 µM) | 86 µg/mL (≈ 37.3 µM) |
| CC[C@H](C)[C@H](NC(=O)[C@H](CCCCN)NC(=O)[C@H](CCCCN)NC(=O)CNC(=O)[C@H](CCCCN)NC(=O)[C@]1(C)CCCC=CCCC[C@](C)(NC(=O)CN)C(=O)N[C@@H](Cc2ccccc2)C(=O)N[C@@H](CO)C(=O)N[C@@H](CCCCN)C(=O)N1)C(=O)N[C@@H](CCCCN)C(=O)N[C@@H](CC(N)=O)C(=O)N[C@@H](CC(C)C)C(=O)N[C@@]1(C)CCCC=CCCC[C@@](C)(C(=O)N[C@@H](CCCCN)C(=O)NCC(N)=O)NC(=O)CNC(=O)[C@H](CCCCN)NC(=O)[C@H]([C@@H](C)CC)NC1=O [compound 32] (H-G[S5]FSK[S5]KGKKIKNL[S5]IKG[S5]KG-NH2; staple 2-6, 15-19) | 33 µg/mL (≈ 14.2 µM) | 25 µg/mL (≈ 10.7 µM) |
| CC[C@H](C)[C@H](NC(=O)[C@H](CCCCN)NC(=O)[C@H](CCCCN)NC(=O)CNC(=O)[C@H](CCCCN)NC(=O)[C@]1(C)CCCC=CCCC[C@](C)(NC(=O)CN)C(=O)N[C@@H](Cc2ccccc2)C(=O)N[C@@H](CO)C(=O)N[C@@H](CCCCN)C(=O)N1)C(=O)N[C@@H](CCCCN)C(=O)N[C@@H](CC(N)=O)C(=O)N[C@@]1(C)CCCC=CCCC[C@@](C)(C(=O)N[C@@H](CC(C)C)C(=O)N[C@@H](CCCCN)C(=O)NCC(N)=O)NC(=O)[C@H](CO)NC(=O)[C@H]([C@@H](C)CC)NC(=O)[C@H](CC(C)C)NC1=O [compound 33] (H-G[S5]FSK[S5]KGKKIKN[S5]LIS[S5]LKG-NH2; staple 2-6, 14-18) | 11 µg/mL (≈ 4.69 µM) | 13 µg/mL (≈ 5.54 µM) |
| CC[C@H](C)[C@H](NC(=O)[C@H](CCCCN)NC(=O)[C@H](CCCCN)NC(=O)CNC(=O)[C@H](CCCCN)NC(=O)[C@]1(C)CCCC=CCCC[C@](C)(NC(=O)CN)C(=O)N[C@@H](Cc2ccccc2)C(=O)N[C@@H](CO)C(=O)N[C@@H](CCCCN)C(=O)N1)C(=O)N[C@@H](CCCCN)C(=O)N[C@@]1(C)CCCC=CCCC[C@@](C)(C(=O)NCC(=O)N[C@@H](CC(C)C)C(=O)N[C@@H](CCCCN)C(=O)NCC(N)=O)NC(=O)[C@H]([C@@H](C)CC)NC(=O)[C@H](CC(C)C)NC(=O)[C@H](CC(C)C)NC1=O [compound 34] (H-G[S5]FSK[S5]KGKKIK[S5]LLI[S5]GLKG-NH2; staple 2-6, 13-17) | 35 µg/mL (≈ 15.1 µM) | 22 µg/mL (≈ 9.5 µM) |
| CC[C@H](C)[C@H](NC(=O)[C@]1(C)CCCC=CCCC[C@](C)(NC(=O)[C@H](CCCCN)NC(=O)[C@H](CCCCN)NC(=O)CNC(=O)[C@H](CCCCN)NC(=O)[C@]2(C)CCCC=CCCC[C@](C)(NC(=O)CN)C(=O)N[C@@H](Cc3ccccc3)C(=O)N[C@@H](CO)C(=O)N[C@@H](CCCCN)C(=O)N2)C(=O)N[C@@H](CCCCN)C(=O)N[C@@H](CC(N)=O)C(=O)N[C@@H](CC(C)C)C(=O)N1)C(=O)N[C@@H](CO)C(=O)NCC(=O)N[C@@H](CC(C)C)C(=O)N[C@@H](CCCCN)C(=O)NCC(N)=O [compound 35] (H-G[S5]FSK[S5]KGKK[S5]KNL[S5]ISGLKG-NH2; staple 2-6, 11-15) | 27 µg/mL (≈ 11.8 µM) | 23 µg/mL (≈ 10 µM) |
| CC[C@H](C)[C@H](NC(=O)[C@H](CCCCN)NC(=O)[C@H](CCCCN)NC(=O)CNC(=O)[C@H](CCCCN)NC(=O)[C@]1(C)CCCC=CCCC[C@](C)(NC(=O)CN)C(=O)N[C@@H](Cc2ccccc2)C(=O)N[C@@H](CO)C(=O)N[C@@H](CCCCN)C(=O)N1)C(=O)N[C@@H](CCCCN)C(=O)N[C@@H](CC(N)=O)C(=O)N[C@@H](CC(C)C)C(=O)N[C@@H](CC(C)C)C(=O)N[C@@]1(C)CCCC=CCCC[C@@](C)(C(=O)NCC(N)=O)NC(=O)[C@H](CC(C)C)NC(=O)CNC(=O)[C@H](CO)NC1=O [compound 36] (H-G[S5]FSK[S5]KGKKIKNLL[S5]SGL[S5]G-NH2; staple 2-6, 16-20) | 63 µg/mL (≈ 27.7 µM) | 67 µg/mL (≈ 29.5 µM) |
| CC[C@H](C)[C@H](NC(=O)[C@H](CCCCN)NC(=O)[C@H](CCCCN)NC(=O)CNC(=O)[C@H](CCCCN)NC(=O)[C@]1(C)CCCC=CCCC[C@](C)(NC(=O)CN)C(=O)N[C@@H](Cc2ccccc2)C(=O)N[C@@H](CO)C(=O)N[C@@H](CCCCN)C(=O)N1)C(=O)N[C@@H](CCCCN)C(=O)N[C@@H](CC(N)=O)C(=O)N[C@@H](CC(C)C)C(=O)N[C@@H](CC(C)C)C(=O)N[C@@]1(C)CCCC=CCCC[C@@](C)(C(=O)NCC(N)=O)NC(=O)[C@H](CCCCN)NC(=O)CNC(=O)[C@H](CO)NC1=O [compound 37] (H-G[S5]FSK[S5]KGKKIKNLL[S5]SGK[S5]G-NH2; staple 2-6, 16-20) | > 200 µg/mL | > 200 µg/mL |
